For `CC(C)(C)C(=O)C(C#N)=NNc1cc(Cl)c(Cl)cc1Cl`, which logP is on record?
The logP was 5.86.

For `COc1c(OCc2ccccc2)cc(Cc2cnc(N)nc2N)cc1OCc1ccccc1`, which logP is on record?
The logP was 3.89.

For `O=S1(=O)NC=Nc2cc(Cl)ccc21`, which logP is on record?
Its logP is 1.01.

With `Clc1nc2c(Cl)c(Cl)c(Cl)c(Cl)c2[nH]1` as the compound, how does the logP read?
Its logP is 4.53.

Which logP does the source give for `CC1=CC(=O)N2C=CCCC2(C)N1` (stereo not drawn) here?
Its logP is 0.69.

With `Cc1cc([N+](=O)[O-])c2ccccc2[n+]1[O-]` as the compound, how does the logP read?
Its logP is 1.25.

Which logP does the source give for `CSC(C)=NOC(=O)N(C)SN(C)C(=O)c1cccc(Cl)c1` here?
Its logP is 2.7.

For `O=[N+]([O-])c1nccn1C1OC(CO)C(O)C(O)C1O` (stereo not drawn), which logP is on record?
Its logP is -1.4.

Which logP does the source give for `CC1=Nc2c(Br)cc(Cl)cc2S(=O)(=O)N1` here?
The logP was 1.65.

For `COc1cc(Cc2cnc(N)nc2N)ccc1C(C)(C)O`, which logP is on record?
The logP was 1.38.

Which logP does the source give for `CCN1C(=N)SC(=Cc2ccc([N+](=O)[O-])o2)C1=O` here?
Its logP is 1.44.

Which logP does the source give for `O=NN(CCCl)C(=O)NCCO` here?
Its logP is 0.3.

With `COc1ccc(N2C(N)=NC(N)=NC2(C)C)cc1` as the compound, how does the logP read?
Its logP is 0.4.

For `CCCCCOn1c(=O)[nH]c(C)c(Br)c1=O`, which logP is on record?
Its logP is 1.69.

For `CN1C(=O)CN=C(c2c(Cl)cccc2Cl)c2cc(Cl)ccc21`, which logP is on record?
The logP was 3.04.

For `CN(C)Cc1cccs1`, which logP is on record?
The logP was 1.67.

Which logP does the source give for `CNC(=O)Oc1cc(C)c(Cl)cc1C` here?
Its logP is 2.95.

Which logP does the source give for `Oc1cc(Cl)c(NC2=NCCN2)c(Cl)c1` here?
The logP was 1.52.

Which logP does the source give for `COc1cc(Cc2cnc(N)nc2N)cc(OC)c1I` here?
The logP was 2.4.

For `CCOC(=O)C(=Cc1ccc(C)cc1)C(C)=O`, which logP is on record?
Its logP is 2.63.

With `Nc1nnc(S(N)(=O)=O)s1` as the compound, how does the logP read?
Its logP is -0.9.

For `CC1(C)SC2C(NC(=O)C(NS(C)(=O)=O)c3ccccc3)C(=O)N2C1C(=O)O` (stereo not drawn), which logP is on record?
The logP was 0.95.

For `COP(=O)(NC(C)(C)C)Oc1cc(Cl)c(Cl)cc1Cl` (stereo not drawn), which logP is on record?
The logP was 3.83.

Which logP does the source give for `O=[N+]([O-])c1nccn1CCCOc1ccccc1` here?
The logP was 2.38.

Which logP does the source give for `CC(C)N(N=O)C(=O)Nc1ccccc1` here?
The logP was 2.5.

With `CS(=O)(=O)CCn1ccnc1[N+](=O)[O-]` as the compound, how does the logP read?
The logP was -1.3.

For `CC(=O)Nc1cccc(OC(C)=O)c1`, which logP is on record?
Its logP is 1.03.

With `O=NN(CCCl)C(=O)NC1CCS(=O)(=O)CC1` as the compound, how does the logP read?
Its logP is 0.19.

For `CC(=O)NC1=C(Nc2ccccc2)C(=O)c2ccccc2C1=O`, which logP is on record?
The logP was 1.73.

Which logP does the source give for `CC(=O)Oc1cccc(C(F)(F)F)c1` here?
The logP was 2.63.

Which logP does the source give for `Cc1cccc(N=NN(C)C)c1` here?
Its logP is 2.85.

Which logP does the source give for `CNc1nc(N(C)C)nc(N(C)C)n1` here?
The logP was 1.83.

For `CCOc1cc(Cc2cnc(N)nc2N)cc(OCC)c1C(=O)CS(C)(=O)=O`, which logP is on record?
The logP was 0.79.

Which logP does the source give for `OC1C(Cl)C(Cl)C(Cl)C(Cl)C1Cl` (stereo not drawn) here?
The logP was 2.54.

Which logP does the source give for `CC1(C)SC2C(NC(=O)C(Cl)c3ccccc3)C(=O)N2C1C(=O)O` (stereo not drawn) here?
Its logP is 2.3.

With `CNP(=O)(OC)Oc1ccc([N+](=O)[O-])cc1` (stereo not drawn) as the compound, how does the logP read?
The logP was 1.27.

For `CC(C)CNCC(=O)NC(=O)C=[N+]=[N-]`, which logP is on record?
Its logP is 0.37.

Which logP does the source give for `COC(=O)C(C#N)=NNc1c(Cl)cc(C(F)(F)F)cc1Cl` here?
Its logP is 4.36.

For `O=NN(CCCl)C(=O)NC12CC3CC(CC(C3)C1)C2`, which logP is on record?
The logP was 3.56.

With `O=C(COc1ccccc1)N1CCCCC1` as the compound, how does the logP read?
Its logP is 1.81.

With `CC1=Nc2cc([N+](=O)[O-])c(Cl)cc2S(=O)(=O)N1` as the compound, how does the logP read?
Its logP is 1.42.

With `Nc1nc(N)nc(-c2ccc(Cl)cc2Br)n1` as the compound, how does the logP read?
The logP was 2.09.

With `CCC(=O)N(C)SN(C)C(=O)Oc1cccc2c1OC(C)(C)C2` as the compound, how does the logP read?
Its logP is 3.2.

Which logP does the source give for `CC(=O)c1cccc(NS(=O)(=O)C(F)(F)F)c1` here?
The logP was 2.78.

With `COC12C(COC(N)=O)C3=C(C(=O)C(C)=C(N)C3=O)N1CC1C2N1C(=O)Cc1ccccc1` (stereo not drawn) as the compound, how does the logP read?
The logP was 1.15.

Which logP does the source give for `COc1ccc(Br)c(Cc2cnc(N)nc2N)c1` here?
The logP was 2.

With `COc1ccc(Cc2cnc(N)nc2N)cc1I` as the compound, how does the logP read?
The logP was 2.09.

Which logP does the source give for `O=C1CCC(=O)N1c1ccc(C(F)(F)F)cc1` here?
Its logP is 1.45.

Which logP does the source give for `CCOC(=O)C(=Cc1ccccc1Cl)C(=O)OCC` here?
The logP was 3.15.

Which logP does the source give for `CSc1ccc(NS(=O)(=O)C(F)(F)F)cc1` here?
The logP was 3.74.

With `COc1ccccc1C(=O)N1CCN(C)CC1` as the compound, how does the logP read?
Its logP is 0.29.

With `O=[N+]([O-])C=Cc1cccc(O)c1` as the compound, how does the logP read?
Its logP is 2.07.

Which logP does the source give for `NN=C1c2ccccc2C(=O)C1C(=O)C(c1ccccc1)c1ccccc1` (stereo not drawn) here?
Its logP is 3.62.

With `Cc1ccccc1C1=NCC(=O)N(C)c2ccc(Cl)cc21` as the compound, how does the logP read?
Its logP is 3.03.

For `CC1COCCN1N=O` (stereo not drawn), which logP is on record?
The logP was -0.03.

For `NNC(=O)NC1CCCCC1`, which logP is on record?
The logP was 0.15.

Which logP does the source give for `COc1cc(CC(=O)O)ccc1OCCCC(C)C` here?
The logP was 3.3.

Which logP does the source give for `CNC(=O)Oc1cccc(C(F)(F)F)c1` here?
Its logP is 2.37.

With `Nc1ncc(Cc2cc(Cl)c(Cl)cc2Cl)c(N)n1` as the compound, how does the logP read?
The logP was 3.79.

Which logP does the source give for `COc1ccc(Cc2cnc(N)nc2N)c(OC)n1` here?
Its logP is 2.01.

With `CS(=O)(=O)c1cccc(NS(=O)(=O)C(F)(F)F)c1` as the compound, how does the logP read?
The logP was 1.85.

For `CON(C)C(=O)Nc1cccc(C(C)(C)C)c1`, which logP is on record?
Its logP is 3.21.

With `CC(C)C1OC(=O)c2ccccc21` (stereo not drawn) as the compound, how does the logP read?
The logP was 2.1.

With `O=c1[nH]nc(CSc2ccccc2)[nH]1` as the compound, how does the logP read?
The logP was 1.46.

Which logP does the source give for `CSC(C)=NOC(=O)N(C)SN(C)C(=O)C1CC1` here?
The logP was 1.7.

Which logP does the source give for `COC(=O)C(C#N)=NNc1ccc(SC(F)(F)F)cc1` here?
The logP was 4.3.

For `CN1C(=O)CN=C(c2ccccc2F)c2cc(I)ccc21`, which logP is on record?
The logP was 3.14.

With `CCN(CC)CCCNC(=O)c1ccccc1OC` as the compound, how does the logP read?
The logP was 1.76.

Which logP does the source give for `COc1cc(Cc2cnc(N)nc2N)cc2c1OCO2` here?
The logP was 1.38.

For `CCOC(=O)CCCN1C(=O)C=CC1=O`, which logP is on record?
The logP was 0.67.

For `COC(=O)N(C)SN(C)C(=O)Oc1cccc2c1OC(C)(C)C2`, which logP is on record?
The logP was 3.

Which logP does the source give for `O=C(O)c1ccccc1NCCO` here?
Its logP is 1.35.

Which logP does the source give for `CC1NCCN1CCO` (stereo not drawn) here?
The logP was -1.93.
